Reference: patent publication US20090118173A1, “TREATMENT AND PREVENTION OF INFLAMMATORY BOWEL DISEASES” (priority 2006, published 2009)

What was measured:
[1] = test system: human MHC class II molecules; conditions: human B cell line under stress (nutrient deprivation); peptide of the same sequence; cited from earlier work
[2] = test system: bacterially primed T-cells; assay: Cross reactivity of bacterial peptide primed T cells with corresponding mouse homologue peptides; assay type: cell-based, Balb/c mice; conditions: proliferation and cytokine production
Text: To test cross-reactivity, i.e. the capacity of selected peptides to induce T cells cross-reactive with homologous self-proteins, the following method can be used (see also Examples):
Any sign of activation (see above) can be taken as an indication of cross-reactivity of the test (e.g. microbial) epitope with the self protein/peptide. Initial testing can be carried out with a synthetic peptide based on the sequence of the self protein/peptide, but final proof for cross-reactivity with the protein/peptide itself, either in isolated form or expressed on cells, is preferably obtained in T cell activation tests with (stressed) antigen presenting cells (over)expressing and presenting the self HSP-peptide, in order to exclude cryptic epitopes.
(§1) To define the epitopes more precisely, we divided the 13 peptides, based on the degree of sequence identity between bacterial and the homologous mouse Hsp70s, in three pools (pool A: non-conserved peptides, pool B: conserved peptides comprising at least about 80% amino acid identity to the mouse homologue, and pool C: highly conserved peptides comprising >86% amino acid identity to the mouse homologue, see below) and immunized 10-12 weeks old Balb/c mice twice with a 2 week interval (intraperitoneally and subcutaneously) with the peptide pools. 10 days after the second immunization primed spleen and draining lymph node cells were re-stimulated in vitro with all the 13 individual peptides after which we measured T-cell proliferation (tritium incorporation), IFNγ, IL10, IL4 and IL5 production (cytokine production).

[3] = test system: primed spleen and draining lymph node cells; assay: Cytokine production (IFNγ, IL10, IL4, IL5) of peptide-pool primed spleen and draining lymph node cells re-stimulated in vitro; assay type: cell-based, Balb/c mice; conditions: mice immunized with peptide pools; in vitro re-stimulation with the individual peptide
Text: as §1

[4] = test system: primed spleen and draining lymph node cells; assay: T-cell proliferation (tritium incorporation) of peptide-pool primed spleen and draining lymph node cells re-stimulated in vitro with individual peptides; assay type: cell-based, Balb/c mice; conditions: mice immunized with peptide pools, in vitro re-stimulation with the individual peptide
Text: as §1

Sequence	elution from human MHC class II molecules [1]	Cross-reactivity of bacterially primed T-cells with mouse homologue peptide [2]	IFN-gamma [3]	IL-10 [3]	T-cell proliferation response [4]
VLRIINEPTAAAIAY (listed as Mus musculus) [mC1b]	eluted from human MHC class II molecules				
KPFQSVIADTGISVS (listed as Mycobacterium tuberculosis) [Peptide A1, mycobacterial hsp70 peptide, pool A (not conserved)]		no	increased	augmented	increased
DEVVAVGAALQAGVL (listed as Mycobacterium tuberculosis) [Peptide B1, mycobacterial hsp70 peptide, pool B (conserved)]		induced cross reactive T cell responses and Yes	increased	No	increased
VLRIVNEPTAAALAY (listed as Mycobacterium tuberculosis) [Peptide C1]		induced cross reactive T cell responses and yes	increased	augmented	increased
